Source: patent US20200199689A1, “Method for Predicting Effectiveness of Angiogenesis Inhibitor” (Eisai R&D Management Co., Ltd., priority 2011, published 2020)

System: human melanoma cell line grafted mouse models
Assay: Anti-tumor effect of angiogenesis inhibitor on mouse model grafted with melanoma cell line
Assay type: in vivo, nude mouse
Details: 100 mg/kg/day orally, 7th day after initiation of administration
Procedure: The human melanoma cell lines used in Example 1 were respectively cultured in the mediums shown in the column of “Culture medium” (containing 10% FBS) of Table 6 until about 80% confluency was obtained (in an incubator under 5% carbon dioxide gas). After culturing, cells were collected by trypsin-EDTA treatment in accordance with a conventional method. The cells were suspended with a phosphate buffer or a matrigel solution (mixture of phosphate buffer and matrigel in a common ratio of 1:1) to prepare suspension solution of 1×10^8 cells/mL or 5×10^7 cells/mL. The cell suspension (0.1 mL) was subcutaneously grafted to the side of the body of each nude mouse. In this manner, human melanoma cell line grafted mouse models were prepared.
After grafting, from the time point when a tumor volume reached about 200 mm^3, a mesylate of 4-(3-chloro-4-(cyclopropylaminocarbonyl)aminophenoxy)-7-methoxy-6-quinolinecarboxamide (hereinafter referred to as E7080) (100 mg/kg/day) was orally administered. The major axis and minor axis of the tumor were measured everyday by Digimatic Caliper (Mitsutoyo). The tumor volume and specific tumor volume were calculated in accordance with the following formula and thereby the anti-tumor effect (ΔT/C) of an angiogenesis inhibitor on the mouse model was measured.
Tumor volume (TV)=tumor longest diameter (mm)×tumor short diameter^2 (mm^2)/2
Anti-tumor effect (ΔT/C)=(TV of medicinal drug administered group−TV before initiation of administration)/(TV of control group−TV before initiation of administration)×100
In FIG. 1, the same cell lines used in Example 1 were used.

For `COc1cc2nccc(Oc3ccc(NC(=O)NC4CC4)c(Cl)c3)c2cc1C(N)=O` [E7080, 4-(3-Chloro-4-(cyclopropylaminocarbonyl)aminophenoxy)-7-methoxy-6-quinolinecarboxamide], the “Anti-tumor effect (ΔT/C)” value (melanoma cells where BRAF has a mutation and PTEN has no mutation) was 45%, the “Anti-tumor effect (ΔT/C)” value (melanoma cells where both of BRAF and PTEN are wild type) was 16% and the “Anti-tumor effect (ΔT/C)” value (melanoma cells where both of BRAF and PTEN have a mutation or loss of expression) was 23%.
